Assay results published in article PMC3162579 (Fluids and Barriers of the CNS, 2011).
“And” between values parts separate entries of the source, which are not always exact repeats. Equal entries are not always repeated.

Assays:
[1] = parameters: method as in PMID 2339131; conditions: mice receiving over 0.1 μg every other day for 2 weeks; cited from earlier work
[2] = Tolerability in mice: body weight, behavior, residual [^3H]dextran (BBB integrity); type: in vivo; conditions: mouse, data not shown
[3] = test system: brain-to-blood [^125I]hAβ(1-40) efflux transport across the BBB; assay: Brain Efflux Index (BEI) study: elimination of [^125I]hAβ(1-40) after intracerebral microinjection; type: in vivo; conditions: for decrease of percentage of [^125I]hAβ(1-40) remaining in ipsilateral cerebrum versus vehicle-treated control: n = 5; for effect on percentage of [^125I]hAβ(1-40) remaining versus vehicle-treated control: single i.p. 1 μg/mouse
Description: Control mice were injected i.p. with 100 μL of each vehicle solution. After an indicated time (24, 48, or 72 h), the in vivo brain elimination experiments were performed using the intracerebral microinjection technique. Briefly, mice were anesthetized with an intramuscular injection of xylazine (1.22 mg/kg) and ketamine (125 mg/kg), and placed in a stereotaxic frame (SRS-6; Narishige, Tokyo, Japan) that determines the coordinates of the mouse brain coinciding with the secondary somatosensory cortex 2 (S2) region. A small hole was made 3.8 mm lateral to the bregma, and a fine injection needle fitted to a 5.0 μl microsyringe (Hamilton, Reno, NE, USA) was advanced to a depth of 2.5 mm. The solution of [^125I]hAβ(1-40) was freshly prepared from lyophilized [^125I]hAβ(1-40) immediately before each experiment. Lyophilized [^125I]hAβ(1-40) was solubilized in H2O and then added to an equal volume of 2-fold concentration of extracellular fluid (ECF) buffer (244 mM NaCl, 50 mM NaHCO3, 6 mM KCl, 2.8 mM CaCl2, 2.4 mM MgSO4, 0.8 mM K2HPO4, 20 mM D-glucose, and 20 mM HEPES, pH 7.4). […] The applied solution (0.3 μl) containing [^125I]hAβ(1-40) and [^3H]dextran in an ECF buffer was administered into the S2 region over a period of 30 sec. After microinjection, the microsyringe was left in place for 4 min to minimize any backflow. At 5, 30 or 60 min after microinjection, ipsilateral (left) and contralateral (right) cerebrum and cerebellum were excised and dissolved in 2.0 ml 2 M NaOH at 60°C for 1 h. The ^125I and ^3H radioactivities of the samples were measured in a γ-counter (ART300, Aloka, Tokyo, Japan) for 3 min and a liquid scintillation counter (TRI-CARB2050CA, Packard Instruments, Meriden, CT, USA) for 5 min, respectively. The BEI was defined by Equation (1), and the percentage of substrate remaining in the ipsilateral cerebrum (100-BEI) was determined using Equation (2): [drawing 1] [drawing 2]
The apparent elimination rate constant (kel) was determined from the slope given by fitting a semilogarithmic plot of (100-BEI) versus time, using the nonlinear least-squares regression analysis program MULTI [27].

TM-BBB4 cells [4] = assay: In vitro internalization (acid-resistant binding) of [^125I]hAβ(1-40) in TM-BBB4 cells; type: cell-based, mouse
Description: The TM-BBB4 cell line, established from transgenic mice harboring the temperature-sensitive SV40 large T-antigen gene, was used in this study. TM-BBB4 cells were cultured at 33°C in Dulbecco's modified Eagle's medium (DMEM; Nissui Pharmaceutical Co., Tokyo, Japan), supplemented with 20 mM NaHCO3, 2 mM L-glutamine, 15 ng/ml endothelial cell growth factor, 100 U/ml benzyl penicillin, […] streptomycin sulfate, and 10% fetal bovine serum (Moregate, Bulimba, Australia) in an atmosphere of 95% air and 5% CO2.
TM-BBB4 cells were seeded on 24-well plates (Becton Dickinson, Bedford, MA, USA) at a density of 1.0 × 10^5 cells/2 cm^2/well and cultured for 24 h. The cells were treated with the indicated concentrations of forskolin and U0126 or vehicle for 24 h, and then internalization of [^125I]hAβ(1-40) into TM-BBB4 cells was examined as previously described. Briefly, the extent of TM-BBB4 cell-[^125I]hAβ(1-40) (0.15 μCi/200 μl in ECF buffer) binding was measured for 3 min at 37°C. After the indicated times, binding was terminated by removing the solution, and the cells were washed three times with 1 ml ice-cold ECF buffer. The cells were then incubated with 1 ml ice-cold acetate-barbital buffer (28 mM CH3COONa, 120 mM NaCl, 20 mM barbital sodium (pH 3.0) and 360 mOsm/kg) for 20 min at 4°C to remove [^125I]hAβ(1-40) bound to the cell surface. After incubation, the buffer was then recovered (acid-soluble fraction) and the cells were subsequently washed three times with ice-cold acetate-barbital buffer.
(§1) Acid-resistant binding represents the amount of internalized [^125I]hAβ(1-40) in the TM-BBB4 cells. The cells were solubilized with 200 μl of 5 M NaOH overnight and neutralized with 200 μl of 5 M HCl. The ^125I radioactivity was measured using a γ-counter (ART310, Aloka, Tokyo, Japan). The protein content of the cultured cells was measured using a DC protein assay kit (Bio-Rad, Hercules, CA, USA) with bovine serum albumin as a standard.

[5] = after i.p. administration; cited from earlier work
From the text: Reduction of Aβ in the CNS is considered to be a primary therapeutic target for AD.

[6] = test system: elimination of [^125I]hAβ(1-40) from rat brain; conditions: cited from earlier work
Description: The present study examined the [^125I]hAβ(1-40) elimination from the brain for 60 min, and considerable degradation of injected [^125I]hAβ(1-40) might occur during this period.

TM-BBB4 cells [7] = assay: Protein content of TM-BBB4 cells after the uptake (DC protein assay); type: cell-based, mouse
Description: as §1

Q: What does the source list for `C=C1/C(=C\C=C2/CCC[C@]3(C)[C@@H]([C@H](C)CCCC(C)(C)O)CC[C@@H]23)C[C@@H](O)C[C@@H]1O` [1,25(OH)2D3, 1α,25-dihydroxyvitamin D3]?
A: hypercalcemia (calcium level) [1]: over 12 mg/dL; adverse effects during repeated treatment ([2]; 1 μg/day, from day 4): reduced body weight and abnormal behavior; body weight ([2]; single i.p. dose, up to 72 h after administration): No significant decrease; initial percentage of [^125I]hAβ(1-40) remaining in the mouse brain ([3]; 1 μg/mouse i.p., 24 h, not significantly different from vehicle (114%)): 118%; percentage of [^125I]hAβ(1-40) remaining in brain compared with vehicle-treatment group ([3]; mouse, 1 μg/mouse i.p., 24 h, 60 min after microinjection, time-profile experiment (Figure 1A)): significantly lower; increase of [^125I]hAβ(1-40) elimination rate constant versus vehicle-treated group ([3]; mouse, 1 μg/mouse i.p., 24 h after injection, p < 0.01): 1.3 fold and 1.29 fold; decrease of percentage of [^125I]hAβ(1-40) remaining in ipsilateral cerebrum versus vehicle-treated control ([3]; mouse, single i.p. 0.2 μg/mouse, 24 h, 60 min after microinjection): 12.9%; effect on percentage of [^125I]hAβ(1-40) remaining versus vehicle-treated control ([3]; mouse, 24 h after administration, 60 min after microinjection, n = 4-5 (Figure 2B)): significant reduction; effect on percentage of [^125I]hAβ(1-40) remaining versus vehicle-treated control ([3]; mouse, 48 h after administration, 60 min after microinjection, n = 4-5): no significant reduction; effect on percentage of [^125I]hAβ(1-40) remaining versus vehicle-treated control ([3]; mouse, 72 h after administration, 60 min after microinjection, n = 4-5): no significant reduction; decrease of percentage of [^125I]hAβ(1-40) remaining in ipsilateral cerebrum versus vehicle-treated control ([3]; mouse, single i.p. 5 μg/mouse, 24 h, 60 min after microinjection): 19.5%; apparent elimination rate constant (kel) of [^125I]hAβ(1-40) across the BBB ([3]; mouse, single i.p. dose 1 μg/mouse, 24 h before microinjection, slope of (100-BEI) time profile 5-60 min, mean ± SD, n = 3-5, vehicle group 1.85 × 10^-2): 0.0238 ± 0.0009 min⁻¹; effect on [^125I]hAβ(1-40) internalization by TM-BBB4 (TM-BBB4 cells [4]; data not shown): failed to provide consistent results; time at which plasma concentration reaches a maximum [5]: ≤ 2 h; time at which plasma concentration returns to baseline [5]: 24 h

Q: For `N[C@@H](Cc1ccc(O)cc1)C(=O)O` [L-tyrosine], which “inhibition of elimination of [^125I]hAβ(1-40) from rat brain” value [6] is on record?
A: not significantly inhibited

Q: With `N#CC(=C(/N)Sc1ccccc1N)/C(C#N)=C(/N)Sc1ccccc1N` [U0126] as the molecule, how does the “protein content of the cells after the uptake” value (TM-BBB4 cells [7]; 24 h treatment (U0126 25 μM, forskolin 10 μM), mean ± SEM, n = 4, control 89.8 ± 6.0) read?
A: 72.0 ± 7.0 μg protein/well

Q: And the “reduction of protein content of the cells after the uptake” value (TM-BBB4 cells [7]; U0126 25 μM, 24 h, versus control 89.8 ± 6.0 μg protein/well)?
A: 19.8%

Q: And the “effect on forskolin-induced enhancement of [^125I]hAβ(1-40) acid-resistant binding” value (TM-BBB4 cells [4]; U0126 25 μM with forskolin 10 μM for 24 h, [^125I]hAβ(1-40) 0.4 nM, 3 min, n = 4)?
A: suppressed

Q: What about the “reduction of acid-resistant binding of [^125I]hAβ(1-40) compared with the control” value (TM-BBB4 cells [4]; pre-treatment with U0126 alone, 25 μM, 24 h, 3 min uptake, n = 4) of the same molecule?
A: 11.2%

Q: For `C=C[C@@]1(C)CC(=O)[C@]2(O)[C@@]3(C)[C@@H](O)CCC(C)(C)[C@@H]3[C@H](O)[C@H](OC(C)=O)[C@@]2(C)O1` [forskolin], which “decrease of percentage of [^125I]hAβ(1-40) remaining in mouse brain versus vehicle-treated group” value ([3]; single i.p. 2.3 μg/mouse, 24 h, 60 min after microinjection, n = 4-5) is on record?
A: 16.4%

Q: And the “decrease of percentage of [^125I]hAβ(1-40) remaining in mouse brain versus vehicle-treated group” value ([3]; single i.p. 23 μg/mouse, 24 h, 60 min after microinjection, n = 4-5)?
A: 16.4%

Q: What about the “effect on acid-resistant binding (internalization) of [^125I]hAβ(1-40) by TM-BBB4 cells” value (TM-BBB4 cells [4]; pre-treatment 10 μM for 24 h, 0.1% DMSO, [^125I]hAβ(1-40) 0.4 nM, 3 min, 37°C, n = 4) of the same molecule?
A: significantly increased

Q: With `C[C@H](/C=C/[C@H](C)C(C)(C)O)[C@H]1CC[C@H]2/C(=C/C=C3C[C@@H](O)C[C@H](O)C3)CCC[C@]12C` [paricalcitol] as the molecule, how does the “effect on [^125I]hAβ(1-40) elimination from mouse brain” value ([3]; data not shown) read?
A: did not significantly enhance
